Some test systems named below: SF-295 CNS; LOX IMVI melanoma; HOP-92 NSCLC; TK-10 renal; OVCAR-4 ovarian; MALME-3M melanoma; SK-MEL-2 melanoma; SF-268 CNS; MOLT-4 leukemia.
Common to all, as to assay: NCI anticancer screen, dose series, 48 h

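Exposure lasted 48 hours, with cells grown in 96-well plates and compounds tested at five concentrations. GI50 is the concentration that inhibits growth by half. At the TGI there is no net growth.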

As to `CC(C)CCCC(C)[C@H]1CCC2C3CC=C4C[C@@H](OC(=O)CC(CC(=O)[O-])C(=O)[O-])CC[C@]4(C)C3CC[C@@]21C.N.N.[Pt+4]` (stereo partly drawn), the GI50 in the assay with SF-295 CNS, in the assay with LOX IMVI melanoma, in the assay on HOP-92 NSCLC, in the assay on TK-10 renal and with OVCAR-4 ovarian was > 100 µM each time. For the same compound, the TGI in the assay with SF-295 CNS, with LOX IMVI melanoma, in the assay on HOP-92 NSCLC, in the assay on TK-10 renal and in the assay with OVCAR-4 ovarian was > 100 µM throughout.
On to `COc1ccccc1NC(=O)C1=C(C)NC(C)=C(C(=O)Nc2ccccc2OC)C1c1ccc(C2C(C(=O)Nc3ccccc3OC)=C(C)NC(C)=C2C(=O)Nc2ccccc2OC)cc1`, for which the TGI in the assay with SF-295 CNS turned out to be 6.28 µM; in the assay on MALME-3M melanoma it was 7.94 µM; with LOX IMVI melanoma, 2.67 µM; in the assay with HOP-92 NSCLC, 9.45 µM; with SK-MEL-2 melanoma it was 5.77 µM; with TK-10 renal, 16.2 µM. Further, the TGI turned out to be 11.6 µM with SF-268 CNS, 15.6 µM in the assay on OVCAR-4 ovarian and 17.8 µM in the assay with MOLT-4 leukemia.
On to `C=CC(=O)OCCCS(=O)(=O)[O-].C=CC(=O)OCCCS(=O)(=O)[O-].NC1CCCCC1N.[Pt+4]`, for which the GI50 in the assay on SF-295 CNS, in the assay on MALME-3M melanoma, with LOX IMVI melanoma, in the assay on SK-MEL-2 melanoma, in the assay on TK-10 renal and in the assay with SF-268 CNS was > 25 µM in each case. For the same compound, the GI50 with OVCAR-4 ovarian and in the assay with MOLT-4 leukemia was > 25 µM throughout. The TGI in the assay on SF-295 CNS, in the assay on MALME-3M melanoma, with LOX IMVI melanoma, with SK-MEL-2 melanoma, in the assay with TK-10 renal and in the assay on SF-268 CNS was > 25 µM in each case. The TGI with OVCAR-4 ovarian and in the assay on MOLT-4 leukemia was > 25 µM each time.
`COc1ccc(C2C(C(=O)O)=C(CO)Oc3cc4c(cc32)OCO4)c(OC)c1` (stereo not drawn): the TGI with SF-295 CNS, with MALME-3M melanoma, with LOX IMVI melanoma, in the assay on HOP-92 NSCLC, with TK-10 renal and in the assay with OVCAR-4 ovarian was > 100 µM throughout. The TGI in the assay with MOLT-4 leukemia was > 100 µM.
Turning to `CC(C(=O)c1ccc(O)cc1)C1(O)C(=O)Nc2c(Cl)cc(Cl)cc21` (stereo not drawn), the TGI was > 100 µM in the assay with SF-295 CNS; > 100 µM in the assay on MALME-3M melanoma; > 67.8 µM with LOX IMVI melanoma; > 100 µM in the assay with HOP-92 NSCLC; > 100 µM in the assay with SK-MEL-2 melanoma; > 100 µM in the assay with TK-10 renal. The TGI in the assay on SF-268 CNS was > 100 µM; in the assay with OVCAR-4 ovarian, 50.5 µM; with MOLT-4 leukemia, > 100 µM.
With `O=C(CC(=O)c1cccc2ccccc12)C(=O)Nc1nccs1`, the TGI in the assay with SF-295 CNS, in the assay with MALME-3M melanoma, with LOX IMVI melanoma, with HOP-92 NSCLC, in the assay with SK-MEL-2 melanoma and in the assay with TK-10 renal was > 100 µM each time. For the same compound, the TGI with SF-268 CNS, in the assay with OVCAR-4 ovarian and in the assay on MOLT-4 leukemia was > 100 µM throughout.
On to `CC(C)(C)CC(C)(C)c1cc2c(O)c(c1)Cc1cc(C(C)(C)CC(C)(C)C)cc(c1O)Cc1cc(C(C)(C)CC(C)(C)C)cc(c1O)Cc1cc(C(C)(C)CC(C)(C)C)cc(c1O)Cc1cc(C(C)(C)CC(C)(C)C)cc(c1O)Cc1cc(C(C)(C)CC(C)(C)C)cc(c1O)Cc1cc(C(C)(C)CC(C)(C)C)cc(c1O)Cc1cc(C(C)(C)CC(C)(C)C)cc(c1O)C2`, for which the TGI with SF-295 CNS, in the assay on MALME-3M melanoma, in the assay on HOP-92 NSCLC, with SK-MEL-2 melanoma, in the assay on TK-10 renal and in the assay on SF-268 CNS was > 100 µM in each case. Besides, the TGI in the assay on OVCAR-4 ovarian and with MOLT-4 leukemia was > 100 µM throughout.
In the case of `O=c1c2cc(Br)ccc2n(C2OC(CO)C(O)C(O)C2O)c(=S)n1-c1ccccc1` (stereo not drawn), the TGI in the assay on SF-295 CNS, in the assay on MALME-3M melanoma, in the assay on LOX IMVI melanoma, in the assay on HOP-92 NSCLC, in the assay with SK-MEL-2 melanoma and with TK-10 renal was > 100 µM each time. Further, the TGI with SF-268 CNS, with OVCAR-4 ovarian and in the assay with MOLT-4 leukemia was > 100 µM each time.
In the case of `CC/C(=N/O)C(C)C(=O)CCC(=O)Nc1ccc(Cl)cc1` (stereo not drawn), the TGI in the assay on SF-295 CNS, in the assay on MALME-3M melanoma, with LOX IMVI melanoma, in the assay with SK-MEL-2 melanoma, with TK-10 renal and in the assay with SF-268 CNS was > 100 µM each time. Further, the TGI with OVCAR-4 ovarian and in the assay with MOLT-4 leukemia was > 100 µM in each case.
Regarding `O=C(c1nc2ccc(Cl)cc2[nH]c1=O)C(O)c1cccc([N+](=O)[O-])c1` (stereo not drawn), the TGI is > 100 µM in the assay with SF-295 CNS; > 100 µM in the assay with MALME-3M melanoma; 40 µM in the assay on LOX IMVI melanoma; > 100 µM in the assay on HOP-92 NSCLC; > 100 µM in the assay on SK-MEL-2 melanoma; > 100 µM in the assay with TK-10 renal. Moreover, the TGI is 81.5 µM in the assay with SF-268 CNS, > 100 µM with OVCAR-4 ovarian and > 100 µM with MOLT-4 leukemia.
In the case of `CC1=CC[C@@H]2C(=O)C=CC=C[C@H]12.[C-]#[O+].[C-]#[O+].[C-]#[O+].[Fe]`, the GI50 in the assay with MALME-3M melanoma, in the assay on LOX IMVI melanoma, with SK-MEL-2 melanoma, in the assay on TK-10 renal, in the assay with OVCAR-4 ovarian and in the assay on MOLT-4 leukemia was > 100 µM each time. Moreover, the TGI in the assay on MALME-3M melanoma, in the assay with LOX IMVI melanoma, in the assay with SK-MEL-2 melanoma, in the assay on TK-10 renal, with OVCAR-4 ovarian and in the assay with MOLT-4 leukemia was > 100 µM each time.
In the case of `[N-]=[N+]=Nc1nnc(CCCCc2nnc(N=[N+]=[N-])o2)o1`, the TGI in the assay on SF-295 CNS, in the assay with MALME-3M melanoma, in the assay with LOX IMVI melanoma, in the assay on HOP-92 NSCLC, in the assay on SK-MEL-2 melanoma and in the assay with TK-10 renal was > 100 µM in each case. Moreover, the TGI in the assay on SF-268 CNS, in the assay on OVCAR-4 ovarian and in the assay with MOLT-4 leukemia was > 100 µM each time.
Take `COC(=O)CCC(=O)Nc1cc(C)ccc1C`: the TGI with SF-295 CNS, with MALME-3M melanoma, in the assay on LOX IMVI melanoma, in the assay with HOP-92 NSCLC, with SK-MEL-2 melanoma and in the assay with TK-10 renal was > 100 µM throughout. The TGI in the assay on OVCAR-4 ovarian and in the assay on MOLT-4 leukemia was > 100 µM throughout.
